Laboratory results reported in paper PMC8224775, “Five Tetramic Acid Derivatives Isolated from the Iranian Fungus Colpoma quercinum CCTU A372” (Biomolecules, 2021).
In brackets after ≈: the same amount, converted by molar mass. Marks after values point to notes of the source that are not given here. One block for each molecule: values may come before it.

Experiments:
[1] = system: Acinetobacter baumanii DSM 30008; experiment: Antimicrobial serial dilution assay (MIC); type: cell-based; conditions: Acinetobacter baumannii, DSM30008, serial dilution 67 to 0.5 µg/mL, overnight, read-out: MIC
Description: (§1) Antimicrobial activity was determined by our established protocol, according to Becker et al.. In general, all of the pure compounds were dissolved in MeOH with a concentration of 1 mg/mL. Assessment of the antimicrobial activity was determined using the serial dilution assay method to calculate the minimum inhibitory concentration (MIC). In this method, the compounds were diluted in a range between 67 and 0.5 µg/mL in 96 well-plate and incubated with the test organism overnight. The next day, growth of the test organisms was visually observed, and MIC was determined in the lowest concentration where a clear zone (no growth of test organism) was observed. In our attempt for novel anti-infective compounds, an established standard protocol using various organisms representing a broad spectrum of pathogens of clinical interest, as well as sensitive indicator strains, was used (bacteria: Bacillus subtilis DSM 10, Staphylococcus aureus DSM 346, Acinetobacter baumanii DSM 30008, Chromobacterium violaceum DSM 30191, Escherichia coli DSM 1116 and Pseudomonas aeruginosa PA14; mycobacteria: Mycobacterium smegmatis ATCC 700084 and fungi: Candida albicans DSM 1665, Schizosaccharomyces pombe DSM 70572, Mucor hiemalis DSM 2656, Wickerhamomyces anomala DSM 6766 and Rhodotorula glutinis DSM 10134). Methanol as a solvent to dissolve the pure compounds was used as the negative control. Oxytetracycline, ciprofloxacin, gentamycin, and kanamycin were used as positive controls against bacteria, whereas nystatin was used against fungi. A detailed experimental procedure can be found in the SI.
(§2) Protocol: Antimicrobial Activity Assay
(§3) The assay was conducted as a minimum inhibitory concentration (MIC) assay in 96-well round- bottom microtiter plates using the parameters summarized in Table S1 and as already described in [S1]. Stocks of the test organisms were generated by growing the organisms overnight in 50 mL shaking flasks filled with 25 mL of the growth medium at 140r p m ( media and temperatures see Table S1). If the organisms were well grown the next day, which was checked by the occurrence of an optical density (OD) […] of the suspension (OD600 nm for bacteria, OD548 nm for fungi and M. smegmatis), aliquots of these were stored in 1.5 mL reaction tubes in a freezer at −80 °C for up to 12 months. Upon use, aliquots were unthawed and the OD of the suspension measured and adjusted by diluting with the respective growth medium. OD600 nm was adjusted to 0.01 and OD548 nm to 0.1. Subsequently, 150 μ L of the adj usted suspensions were added to all wells of a 96-well microtiter plate (one test organism per plate). In row A, additional 130 μ L of suspensions plus 20 μ L of the test compounds (1 mg/mL) and the controls (one compound/column) were added. MeOH was used as negative controls, while different positive controls (references) were used for the test organisms (see Table S1). Then, starting from row A, 150 μ L of t he suspension were transferred to the next row, the contents thoroughly mixed, and 150 μ L transferred to the following row. The remaining 150 μ L after row H were discarded. […]
(§4) of the test compounds, ranging from 66.7 μg/mL in row A to 0.52 μ g/mL in row H. The microtiter plates were then incubated overnight on a microplate shaker at 800 rpm at 30 or 37 °C (see Table S1) and were visually evaluated the next day. The MIC is defined as the lowest concentration where no growth of the test organism (clear zone) was observed. A lower MIC thus corresponds to a higher antimicrobial activity of the test compound.
(§5) Table S1: MIC assay experiment parameters test organism strain No growth incubation positive control […]
(§6) Candidaa lbicans DSM1665 MYC3 30 nystatin 1.0mg/ mL
(§7) Schizosaccharomyces DSM70572 MYC3 30 nystatin 1.0mg/ mL
(§8) Mucor hiemalis DSM2656 MYC3 30 nystatin 1.0mg/ mL
(§9) Wickerhamomyces DSM6766 MYC3 30 nystatin 1.0mg/ mL
(§10) Rhodotorula glutinis DSM10134 MYC3 30 nystatin 1.0mg/ mL
(§11) 1 MHB: Müller-Hinton Broth (SN X927.1, CarlRoth GmbH, Karlsruhe, Germany) […]

[2] = system: human lung carcinoma A-549; experiment: 5-day MTT cytotoxicity assay; type: cell-based; conditions: A549, 120 h
Description: (§12) Cytotoxicity of compounds 1‒5 was initially determined against two cancer cell lines (mouse fibroblasts L-929 and human endocervical adenocarcinoma KB-3.1) by using a 5-day MTT assay according to an established procedure.
(§13) In 96-well flat-bottom microtiter plates, cell lines with serial dilution of the test compounds (final range: 37 to 0.6 × 10^−3 µg/mL) were incubated for five days. After five days, the cells were dyed using 3-(4,5-dimethyl-2-thiazolyl)-2,5-diphenyl-2H-tetrazolium bromide (MTT), which is only converted to its purple formazan derivative by living cells. The half-maximum inhibitory concentration (IC50 in µM) was calculated via the colorimetric method in a microplate reader using absorption at 595 nm. In addition, when an inhibition with an IC50 < 50 µM was observed, other cell lines were subjected to the test compounds to evaluate their further cytotoxicity: PC-3 (human prostate adenocarcinoma), SK-OV-3 (human ovary adenocarcinoma), MCF-7 (human breast adenocarcinoma), A-431 (human squamous carcinoma), and A549 (human lung carcinoma). A detailed procedure, including the colorimetric method to determine the cell viability, can be found in the SI.
(§14) Protocol: Cytotoxicity Assay
(§15) The assay was co nducted in 9 6-well flat -botto m microtiter plates using the parameters summarised in T able S2 and as described in [S2]. Cell l ines L-929 and KB-3.1 were incubated at 37 °C under 10 % CO2 in Gibco™ DMEM medium (T her mo Fisher Scientific, Waltham, M A, USA) supplemented with 10 % FBS. A microtiter plate was filled wit h 120 μ L o f this suspensio n (50,000/mL) in each well. Seperatel y, a nother microti ter plate wa s filled wit h 100 μL of gro wth medium in each well. Then, 50 μ L of the test compound solutions (1 mg/mL) were given to wells of the first column in two replicates (one compound per row). Cells without additives and MeOH were used as nega tive controls. Starting from the first column, 50 μ L of the solutions were gradually transferred to the next column, the contents thoroughly mixed, and 50 μL transferred to the following column. This created a serial dilution of the test compounds ranging from 333 μ g/mL to 1.9×10-3 μg/ mL. T he re mai ni ng 50 μ L after column twelve were discarded. From this microtiter plate, 60 μ L of the solutions fro m 111 μ g/mL to 1.9×10-3 μg/mL we r e give n to t he firs t p late co ntai ni ng 1 2 0 μ L of the cell suspensions (i.e. the highest co ncentration 333 μ g/ mL wa s no t used). T his resul ted in fi nal compo und concentratio ns rangi ng fro m 37 μ g/mL to 0.6×10-3 μg/ mL. After 5 days o f incubatio n under the aforementioned incubatio n conditions, the half maximu m inhibitory co ncentrations (IC50) were deter mined using a colorimetric tetrazolium d ye MT T assa y [S3]. For this, 20 μ L of a 5 mg/mL solution of 3-(4,5-dimethyl-2 -thiazolyl) -2,5-diphenyl-2H-tetrazolium br omide (MTT) were added to each well and incubated for two hours at 37 °C. T hen, the microtiter plate was ce ntrifuged (3,000 rpm, 5 min) and the supernatant removed by holding the plate upside-down and gentle shaking. Afterwards, the wells were washed using 100 μ L of phosphate buffered saline (PBS). T he plate was a gain ce ntrifuged a nd the supernata nt re mo ved as described before.
(§16) T hen, 1 0 0 μ L of an isopropanol:HCl solution (1L isopropanol+4 mL HCl 37 % w/v) were added to the wells. After incubating for 10 min at ambient temperature, the absorption of the wells at 595 nm was measured with an Infinite® 200 Pro microplate reader (TECAN, Männedorf, Schweiz). The absorption values of the cells without additives were averaged and set to 100 % cell viability. Then, the means of absorption of the two compound replicates were set in relation to the blank media. T hese percentage values were plotted against the concentratio n range (37 μ g/mL to 0.6×10−3 μg/ mL). T he IC50 value was r ead fro m the plot (in μ g/ mL) a nd the uni ts conversed […]
to μM. […]

[3] = system: human prostate cancer PC-3; experiment: 5-day MTT cytotoxicity assay; type: cell-based; conditions: 120 h
Description: as §12, §13, §14, §15, §16
to μM. […]

[4] = system: human breast adenocarcinoma MCF-7; experiment: 5-day MTT cytotoxicity assay; type: cell-based; conditions: Homo sapiens, MCF7, 120 h
Description: as §12, §13, §14, §15, §16
to μM. […]

mouse fibroblast L-929 = experiment: 5-day MTT cytotoxicity assay; type: cell-based; conditions: Mus musculus, L929, 120 h
Description: as §12, §13, §14, §15, §16
to μM. […]

[5] = system: endocervical adenocarcinoma KB-3.1; experiment: 5-day MTT cytotoxicity assay; type: cell-based, human; conditions: Homo sapiens, KB 3-1, 120 h
Description: as §12, §13, §14, §15, §16
to μM. […]

[6] = system: ovarian carcinoma SK-OV-3; experiment: 5-day MTT cytotoxicity assay; type: cell-based, human; conditions: Homo sapiens, SK-OV-3, 120 h
Description: as §12, §13, §14, §15, §16
to μM. […]

[7] = system: squamous cell carcinoma A-431; experiment: 5-day MTT cytotoxicity assay; type: cell-based, human; conditions: Homo sapiens, A-431, 120 h
Description: as §12, §13, §14, §15, §16
to μM. […]

Pichia anomala DSM 6766 = experiment: Antimicrobial serial dilution assay (MIC); type: cell-based; conditions: serial dilution 67 to 0.5 µg/mL, overnight
Description: as §1, §2, §3, §4, §5, §6, §7, §8, §9, §10, §11

[8] = system: Rhodotorula glutinis DSM 10134; experiment: Antimicrobial serial dilution assay (MIC); type: cell-based; conditions: serial dilution 67 to 0.5 µg/mL, overnight
Description: as §1, §2, §3, §4, §5, §6, §7, §8, §9, §10, §11

Mucor hiemalis DSM 2656 = experiment: Antimicrobial serial dilution assay (MIC); type: cell-based; conditions: serial dilution 67 to 0.5 µg/mL, overnight
Description: as §1, §2, §3, §4, §5, §6, §7, §8, §9, §10, §11

Escherichia coli = experiment: Antimicrobial serial dilution assay (MIC); type: cell-based; conditions: serial dilution 67 to 0.5 µg/mL, overnight, read-out: MIC
Description: as §1, §2, §3, §4, §5
Escherichia coli DSM1116 MHB1 37 oxytetracyclin 1.0mg/ mL […]
as §6, §7, §8, §9
(§17) Rhodotorula glutinis DSM10134 MYC3 30 nystatin 1.0mg/ mL […]

Bacillus subtilis DSM 10 = experiment: Antimicrobial serial dilution assay (MIC); type: cell-based; conditions: DSM10, serial dilution 67 to 0.5 µg/mL, overnight, read-out: MIC
Description: as §1, §2, §3, §4
Table S1: MIC assay experiment parameters test organism strain No growth incubation positive control
Bacillus subtilis DSM10 MHB1 30 oxytetracyclin 1.0mg/ mL […]
as §6, §7, §8, §9, §17

[9] = system: Staphylococcus aureus DSM 346; experiment: Antimicrobial serial dilution assay (MIC); type: cell-based; conditions: DSM346, serial dilution 67 to 0.5 µg/mL, overnight, read-out: MIC
Description: as §1, §2, §3
as §4, with “A lower MIC thus corresponds to a higher antimicrobial activity of the test compound.” left out

- MIC [1]: 0.26 µg/mL (≈ 0.785 µM)
SMILES: O=C(O)c1cn(C2CC2)c2cc(N3CCNCC3)c(F)cc2c1=O [ciprofloxacin, reference compound]

SMILES: C/C(=C\c1csc(C)n1)[C@@H]1C[C@@H]2O[C@]2(C)CCC[C@H](C)[C@H](O)[C@@H](C)C(=O)C(C)(C)[C@@H](O)CC(=O)O1 [epothilone B, reference compound]
- IC50 [2]: 0.055 nM
- IC50 [3]: 0.27 nM
- IC50 [4]: 0.071 nM
- IC50 (mouse fibroblast L-929): 0.83 nM
- IC50 [5]: 0.053 nM
- IC50 [6]: 0.24 nM
- IC50 [7]: 0.083 nM

SMILES: C[C@@H]1[C@H](O)[C@@H](C)/C=C/C=C/CC/C=C/C=C/C=C/C=C/C(O[C@H]2O[C@H](C)[C@@H](O)[C@H](N)[C@@H]2O)CC2O[C@](O)(CC(O)C(O)CCC(O)CC(O)CC(O)CC(=O)O[C@H]1C)CC(O)C2C(=O)O (some centres unmarked) [nystatin, reference compound]
- MIC (Pichia anomala DSM 6766): 4.2 ^b µg/mL
- MIC [8]: 1.0 ^b µg/mL
- MIC (Mucor hiemalis DSM 2656): 4.2 ^b µg/mL

- MIC (Escherichia coli): 1.7 µg/mL (≈ 3.69 µM)
- MIC (Bacillus subtilis DSM 10): 8.3 µg/mL (≈ 18 µM)
- MIC [9]: 1.7 µg/mL (≈ 3.69 µM)
SMILES: CN(C)[C@@H]1C(O)=C(C(N)=O)C(=O)[C@@]2(O)C(O)=C3C(=O)c4c(O)cccc4[C@@](C)(O)[C@H]3[C@H](O)[C@@H]12 [oxytetracycline, reference compound]
